Data set [1] concerns HeLa, HEK293, PC-12 and SH-SY5Y cells.
In the next data set the test system is polyclonal antibody A11. The data set is described as follows: Immuno-dot blot with oligomer-specific antibody A11. It is filed as binding. The procedure: (§1) Briefly, a small aliquot of cylindrin peptide samples, at a concentration of a few mg/mL, were spotted onto a nitrocellulose membrane (Trans-Blot, Bio-Rad, Hercules, Calif.). After blocking with 10% fat free milk in TBST buffer (50 mM Tris, 150 mM NaCl, 0.05% Tween20), the membranes were incubated with polyclonal antibody or monoclonal antibody (˜1:250 dilution in 5% fat free milk, TBST buffer) at room temperature for 1 hour. The membranes were washed three times in TBST buffer before incubating with anti-rabbit HRP-linked antibody (1:5000 dilution in 5% fat free milk, TBST buffer) (Invitrogen, Carlsbad, Calif.) at room temperature for 1 hour. After washing the membranes three times in TBST buffer, the films were developed following the protocol as described in the Kit (Thermo Scientific Pierce ECL Western Blotting Substrate, #32209). Positive controls for A11 and OC were prefibrillar oligomers and fibrils, respectively (14).

For a further data set, the system named is OC antibody. The data set is described as follows: Immuno-dot blot with fibril-specific antibodies OC. It is filed as binding. The procedure: as §1
Data set [2] can be described thus: Membrane leakage (liposome calcein dye-release) experiments. Format: biochemical. Conditions: for maximum leakage (calcein release): 5, 20, 50 μM peptide, up to 30 hours; for liposome integrity / dye release: FIG. 8. The procedure: Calcein-containing LUVs were prepared as described previously (19), with minor modifications. 1-palmitoyl-2-oleoyl-sn-glycero-3-phosphocholine (POPC) and 1-palmitoyl-2-oleoyl-sn glycero-3-phospho-L-glycerol (POPG) were obtained from Avanti Polar Lipids (Alabaster, Ala.). Mixtures of POPC and POPG in a 7:3 molar ratio were dissolved in 1:1 chloroform:methanol. The solvent was evaporated under dry nitrogen gas to yield a lipid film that was further dried under vacuum for at least 24 hours to remove any residual organic solvent. The film was then hydrated in 70 mM calcein (Sigma Aldrich, St. Louis, Mo.) and 10 mM Tris-HCl (pH 7.4) at a lipid concentration of 5 mM. The suspensions were subjected to 10 freeze-thaw cycles of temperatures of −80 and 50° C., followed by extrusion through two 0.2 μm pore size filters (Whatman, Florham Park, N.J.). Non-encapsulated calcein was separated from calcein-filled LUVs by size exclusion using a Sephadex G-75 (GE Healthcare, Piscataway, N.J.) equilibrated in buffer (10 mM Tris-HCl pH 7.4, 100 mM sodium chloride). The calcein-containing LUVs were concentrated to 3-5 mM and stored at 4° C. Phospholipid content and concentrations of the LUVs were determined by RP-HPLC using 100% Methanol and 100 mM TEAC (tetraethylammonium chloride) pH 7.8 as the solvent and a C18 column. Diameter of LUVs were determined using a Microtrac UPA 150 (York, Pa.). […] LUVs were used for experiments within 5 days of preparation.
Pure, lyophilized K11V-TR and K11VV2L-TR peptides were solubilized in water. Three different stock solutions were made at concentrations of 0.2, 0.8, and 2 mM. 5 uL of each peptide stock solution was added to a well containing 195 uL of 7:3 calcein-containing POPC:POPG LUVs in a buffer (10 mM Tris-HCL pH 7.4, 100 mM sodium chloride). Dye leakage was measured using a SpectraMax5 (Molecular Devices, Sunnyvale, Calif.) at 485 nm excitation and a 535 nm emission. Measurements were taken every 10 minutes for 30 hours. Each well contains a final LUV concentration of 100 μM with final K11V-TR and K11VV2L-TR construct concentrations of 5, 20, and 50 μM. Synthetic human Islet Amyloid Polypeptide (hIAPP) residues 8-37, purchased from CS-Bio (Menlo Park, Calif.), was used as a positive control; since hIAPP has been previously shown to interact and disrupt membranes (15, 16). Lyophilized hIAPP was dissolved in 100% hexafluoro-2-propanol (HFIP) and put under vacuum to evaporate the HFIP. hIAPP was then reconstituted in water at 0.2 mM, filtered using a 0.2 μm filter, and added to six wells containing 100 μM Calcein-containing LUVs to a final concentration of 5 μM hIAPP. Fluorescence at a given time point was normalized as described previously (20), using the equation: Fnormalized=(Ft−Fmin)/(Fmax−Fmin) Ft is the measured fluorescence intensity, Fmin the fluorescence of 100 μM calcein-containing LUVs alone, and Fmax is the maximum fluorescence determined by incubation of 100 μM LUVs in the presence of 0.5% Triton X-100.

The nature of the next data set: in vitro. The settings on record: human (HeLa, HEK293, SH-SY5Y); rat (PC-12).
The test system of data set [3] is Hela; ES derived motor neurons (GFP+). The data set is described as follows: Toxicity assay of SOD1 cylindrins (MTT, visual inspection of GFP+ neuron morphologies). It is filed as cell-based.
Data set [4] concerns the molecule itself. In words: native nanoelectrospray mass spectrometry; self-association of identical chains. The procedure: The cylindrin peptide abbreviation (see Table 1) is labeled for the respective mass spectrum in the upper right corner of the inset. (A) Mass spectrum of cylindrin peptide, K11VV2L dissolved directly in 200 mM ammonium acetate buffer. Expansion of the hexameric oligomers with n-1 and n-2 dissociation products (see for review (13)), shown in inset. […] The n-1 (pentamer) and n-2 (tetramer) dissociated species are located under the respective label, corresponding to ions with +4 and +3 charge states, respectively. The 1231.76 ion corresponds to the K11VV2L peptide chain with a +1 charge state. (B) Native mass spectrum of K11V-TR purified by size exclusion chromatography (see methods for details). […] The labeled +2 and +6 charge state ions correspond to one and four peptide chains, respectively. […]
One to five milligrams of lyophilized peptide was dissolved in 1 mL of water and filtered through a 0.22 or 0.45 μm Centrex MF filter (Whatman, Florham Park, N.J.). […] Absorbance at 220 nm and 280 nm were recorded using a Waters 2487 dual λ absorbance detector (Waters, Milford, Mass.). Protein standards were monitored by absorbance at 280 nm, and cylindrin peptides monitored by absorbance at 220 nm.

Data set [5] concerns the molecule itself. In words: X-ray crystal structure; self-association of identical chains. The method, then: The SOD1-derived peptide […] (SEQ ID NO:61) was crystallized and data collection was performed as follows: The peptide was crystallized via hanging-drop vapor diffusion at 18° C. The peptide was dissolved at 50 mg/mL in 50 mM Tris, then was mixed 1:1 with the reservoir solution: 0.2M Na Citrate pH 5, 13% PEG 6000. The peptide grew into needle-shaped crystals in 2-3 days. For data collection, hundreds of crystals were mounted because of their quick decay. However, two larger crystals were able to be used to collect complete data sets, by diffracting from several points along the length of the crystals. Diffraction from iodine-soaked crystals was used to obtain phases by SIRAS.

Like-named read-outs stand apart in the source and are kept apart here. Where no end group is shown, it is not given here.

Turning to GDVIEV [G6V fibrils], the toxicity of fibrils result in data set [1] (fibrils, in contrast to oligomeric solutions) is listed as “no toxicity”.
In the case of “GKLKVLGDVIEVGGKLKVLGDVIEV [K11V-TR fibrils] (not fully specified)”, the “recognition by A11 antibody” value in the data set on polyclonal antibody A11 is recorded as “recognized only by the OC antibody”. The “recognition by OC antibody” value in the data set with OC antibody is “recognized only by the OC antibody”; in the data set with OC antibody (listed as fibrils of K11V-TR), “immunoreactive”.
As for “GKLKVLGDVIEVGGKLKVLGDVIEV [Peptide K11V-TR]”, the “maximum leakage (calcein release)” value in data set [2] (100 μM LUVs) is on record as 10%. In addition, the “liposome integrity / dye release” value in data set [2] is recorded as “did not exhibit this trend”. Moreover, the “recognition by A11 antibody” value with polyclonal antibody A11 was “recognized by A11”. The cell toxicity entry in data set [1] (different peptide concentrations, HEK293, HeLa, PC12, SH-SY5Y, FIG. 7) is on record as “concentration dependent cell toxicity”. For the same molecule, the “cell toxicity (cell viability)” value in data set [1] (final concentration 100 μM, four mammalian cell lines, FIG. 1F) was “toxic”.
As for “GKVKVLGDVIEVGGKVKVLGDVIEV [K11V-TR (wild-type)]”, the “maximum leakage (calcein release)” value in data set [2] (100 μM LUVs) is 10%.
By viability is commonly meant a per cent measure of how many cells are alive, often set against a control. On to “H-GKLKWLGDVIEVGGKLKWLGDVIEV-OH [Peptide K11VV4W-TR]”, for which the viability at 24 h, 100 µM in “in vitro” was roughly 100%.
Turning to KLKVLGDVIEV [Peptide K11VV2L], the “recognition by A11 antibody” value with polyclonal antibody A11 is given as “recognized by A11”.
Consider KVKVWGSIGKL [KVKVWGSIKGL], for which the entries for the “toxicity to cultured cells” value in data set [3] (peptide (cylindrin)) and in data set [3] (peptide amyloid-like fibrils) were “toxic” and “non-toxic”, respectively.
“cylindrin: six-stranded anti-parallel barrel oligomer of K11V (KVKVLGDVIEV)”: in the data set on polyclonal antibody A11, the “recognition by A11 antibody” value is reported as “recognizes”.
On to “hIAPP8-37: Synthetic human Islet Amyloid Polypeptide residues 8-37, positive control (ATQRLANFLVHSSNNFGAILSSTNVGSNTY; ends and bridges not checked; UniProt P10997 41-70, looked up, fragment) [reference compound]”, for which the “leakage (calcein release)” value in data set [2] (5 μM positive control, 100 μM LUVs) is reported as “up to 60%”. For the same molecule, the “liposome integrity / dye release” value in data set [2] is “clearly diminished liposome integrity leading to dye release”.

B1: K11V-TR tandem repeat cylindrin peptide (tandem repeat of K11VV2L), oligomeric solution (peptide)
peptide: GKLKVLGDVIEVGGKLKVLGDVIEV
notes: Trimer of 25-residue chains (SEC, native MS, crystal structure 3SGR); also called K11VV2L-TR; tandem repeat segment
B1: in data set [4], the binding result is “binds”.

B2: SOD1-derived peptide KVKVWGSIKGL, SOD1(29-39) P29K (peptide)
peptide: KVKVWGSIKGL
notes: Open-ended oligomer (corkscrew), 16 strands per turn, any number of peptide units; also called SOD1 cylindrin; kv11
For B2, the binding result in data set [5] is “binds”.

B3: K11VV2L cylindrin peptide (KLKVLGDVIEV), oligomeric solution (peptide)
peptide: KLKVLGDVIEV
notes: Forms hexameric oligomers (native MS, crystal structure 3SGP); also called single segment; alphaB crystallin residues 90-100 mutant V91L
B3: in data set [4], the binding result is listed as “binds”.
